We go through seven compounds from US20030195212A1, “Novel melanocortin receptor agonists and antagonists” (priority 2000, published 2003).

Each structure is given as a SMILES string.

Test [1] has as its target T1, MC1 receptor (Mus musculus, UniProt Q01727).
T1 construct: B16 mouse melanoma cells were used, which endogenously express the (mouse) MC1 receptor; endogenous in cells; host or cells: B16 mouse melanoma cells
Description: Affinity for the MC1-receptor, displacement of I125-NDP-MSH. Type of test: binding. The following applies: B16 mouse melanoma cells, I125-NDP-MSH ligand; read-out: Affinity for MC-receptors Ki MC1. On the procedure: Test 1. Affinity for the MC1-Receptor
The binding assay was carried out essentially as described by Lunec et al Melanoma Res 1992; 2; 5-12 using I^125α-NDP-MSH as ligand.
(§1) Essentially, the affinity of the compounds to the different receptors were determined using either insect cells (Sf9) or COS cells, which were transfected with recombinant human MC3, MC4 or MC5 receptors. For the determination of the affinity to the MC1 receptor, B16 mouse melanoma cells were used, which endogenously express the (mouse) MC1 receptor.
(§2) The compounds were tested at different concentrations for their ability to displace I^125-labelled NDP-MSH from the respective receptor. Incubation was performed in 96-well plates using 50,000 cells/well (Sf9 or COS cells) up to 200,000 cells/well (mouse melanoma cells).
(§3) The test compound or standard (NDP-MSH) was added in an appropriate concentration (generally between 10^−4 M and 10^−12 M) together with labelled tracer (approx. 50,000 cpm/well) and incubation was performed for 2 hours (at room temperature for Sf 9 cells and at +37° C. for COS cells and mouse melanoma cells).
(§4) After the incubation, the cells were washed twice to get rid of excess tracer and compound, and the cells were lysed with 0.1M NaOH. The lysate was counted in a gamma-counter, binding was calculated and the affinity then determined.

For test [2], the target named is T2, human MC5 receptor (Homo sapiens, UniProt P33032).
T2 construct: expressed in transfected cells; host or cells: Sf9 insect cells or COS cells
Description: cAMP assay, MC5 receptor (transfected Sf9 or COS cells). Type of test: cell-based. The following applies: 20 minutes at +37° C. The procedure:
(§5) Test 3. cAMP Assay p The stimulation of cAMP was carried out essentially as described by Schiöth et al., Br. J. Pharmacol. 1998; 124; 75-82.
(§6) Essentially, the effects of the compounds were tested […] for their ability to stimulate the production of cAMP. The cells used were the same ones that were used for the binding assays (see above), i.e. for the MC1 receptor mouse melanoma B16 cells were used and for the MC3, MC4 and MC5 receptors, Sf9 or COS cells, transfected with the respective human receptors.
(§7) Cyclic AMP was stimulated by the addition of the compounds at different concentrations in the presence of a phosphodiesterase inhibitor, during a period of 20 minutes at +37° C. cAMP was extracted with PCA, neutralised with KOH and the mixture was then centrifuged.
(§8) The concentration of cAMP was determined using a binding assay comprising binding protein (from bovine adrenals). Tritiated cAMP, used as tracer, and extracts (from above) in different dilutions were incubated at +4° C. for 120-150 minutes. The cAMP in the unknown samples displaced the labelled cAMP from binding to the binding protein. The binding protein-cAMP/tracer complex was harvested using a filter technique and the filters were counted using a beta-counter. The concentrations of cAMP in the unknown extracts were calculated using a standard curve of known concentrations.
In general terms: cAMP levels reflect the balance of adenylyl cyclase and phosphodiesterase activity.

For test [3], the target named is T3, human MC4 receptor (Homo sapiens, UniProt P32245).
T3 construct: expressed in transfected cells; host or cells: Sf9 insect cells or COS cells
Kind of test: Affinity for the MC4-receptor, displacement of I125-NDP-MSH. The class given is binding. To be noted: Sf9 or COS cells transfected with human MC4, I125-NDP-MSH ligand; read-out: Affinity for MC-receptors Ki MC4. The procedure: (§9) Test 2. Affinity for the MC3-Receptors, the MC4-Receptors and the MC5-Receptors
(§10) The binding assays were carried out essentially as described by Szardenings et al., J. Biol. Chem. 1997; 272; 27943-27948 and Schiöth et al., FEBS Lett. 1997; 410; 223-228 using I^125-NDP-α-MSH as ligand.
as §1, §2, §3, §4

The target in test [4] is T2, human MC5 receptor. Kind of test: Affinity for the MC5-receptor, displacement of I125-NDP-MSH. The following applies: Sf9 or COS cells transfected with human MC5, I125-NDP-MSH ligand; read-out: Affinity for MC-receptors Ki MC5. The class given is binding. The procedure: as §9, §10, §1, §2, §3, §4
Test [5] has as its target T1, MC1 receptor. Description: cAMP assay, MC1 receptor (mouse melanoma B16 cells). The class given is cell-based. To be noted: 20 minutes at +37° C. On the procedure: as §5, §6, §7, §8
The target of test [6] is T3, human MC4 receptor. Description: cAMP assay, MC4 receptor (transfected Sf9 or COS cells). The class given is cell-based. The following applies: 20 minutes at +37° C. On the procedure: as §5, §6, §7, §8
For test [7], the target named is T4, human MC3 receptor (Homo sapiens, UniProt P41968).
T4 construct: expressed in transfected cells; host or cells: Sf9 insect cells or COS cells
Description: Affinity for the MC3-receptor, displacement of I125-NDP-MSH. Type of test: binding. To be noted: Sf9 or COS cells transfected with human MC3, I125-NDP-MSH ligand; for Ki: read-out: Affinity for MC-receptors Ki MC3. On the procedure: as §9, §10, §1, §2, §3, §4

The target of test [8] is T4, human MC3 receptor. Kind of test: cAMP assay, MC3 receptor (transfected Sf9 or COS cells). The following applies: 20 minutes at +37° C. Type of test: cell-based. On the procedure: as §5, §6, §7, §8
Test [9] has as its system Female BALB/c mice. Kind of test: Anti-inflammatory effects: total number of white blood cells in DNFB model. The class given is in vivo, mouse. The following applies: i.p., 0.05-0.75 mg/kg, blood collected 24 hours after last challenge. On the procedure:
Anti-Inflammatory Effects
Female BALB/c mice (weight 20-22 g) were sensitized by treatment of the shaved abdomen with 30 μl of 0.5% 2,4-dinitrofluorobenzene (DNFB). After 4 days they were challenged with 10 μl of 0.3% DNFB to the paw. The unchallenged mice paws served as a control. Twenty-four hours after the last challenge, the difference in paws weight were determined as an indicator of the inflammation (paw oedema).
Mice were treated as the control but were additionally injected i.p. with various doses (0.05, 0.15 or 0.25, 0.375, 0.5 and 0.75 mg/kg) of each compounds two hours before sensitization (day 0) and the same dose was administered repeatedly after sensitization during four consecutive days. The paw edema inhibition as described above. Groups containing at least 10 mice each were used for all experiments.
Blood analysis was carried out using the QBC® Autoread™ Plus & QBC® Accutube System (Becton Dickinson). In all cases blood samples were collected twenty-four hours after the last challenge.

Test [10] relates to Sprague-Dawley, male rats. Kind of test: In vivo effects on food intake, nocturnal protocol, icv. Also on record: species or system rat. The text has this:
(§11) In Vivo Effects on Food Intake
(§12) Compounds have been tested for their effects on food intake and body weight in rats.
(§13) In order to investigate the agonistic effect, i.e. decrease in food intake, of compounds, the nocturnal protocol was used. Sprague-Dawley, male rats were used, which were cannulated intracerebroventricularly. Stainless steel guide cannulae were placed in the lateral ventricle and fixed in the skull. Animals were acclimatized for a week before the experiments took place. After the experiments were done, the rats were killed and placement of the cannulae were checked.
(§14) Rats were cannulated as described above. They were used without prior starvation, and compounds were administered at 5 pm in a total volume of 5 μl. Doses of Compound 2:4 used were 1, 4 and 10 nmoles. Food intake was measured at 3, 15 and 24 hours after dosing, and body weight was recorded at 24 hours. For comparison, the well known MC4 receptor agonist, Melanotan II (MTII) was used, at a dose of 1 nmole.

Test [11] relates to Sprague-Dawley, male rats. Description: In vivo effects on body weight gain, nocturnal protocol, icv. Details: species or system rat. The following applies: icv, 1, 4 and 10 nmoles, recorded at 24 hours.
From the text: as §11, §12, §13, §14

One may read the Ki as a dissociation constant, usually derived from enzyme kinetics or from competition with a known ligand.

T1 sequence (Q01727 whole entry): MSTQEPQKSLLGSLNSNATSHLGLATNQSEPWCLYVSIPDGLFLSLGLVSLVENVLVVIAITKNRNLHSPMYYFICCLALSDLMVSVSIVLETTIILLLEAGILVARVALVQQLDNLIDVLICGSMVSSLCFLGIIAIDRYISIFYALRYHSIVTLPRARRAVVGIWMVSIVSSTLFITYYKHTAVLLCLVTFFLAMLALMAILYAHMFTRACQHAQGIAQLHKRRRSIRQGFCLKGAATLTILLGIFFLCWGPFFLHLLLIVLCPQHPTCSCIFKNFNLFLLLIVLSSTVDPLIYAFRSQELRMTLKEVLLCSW
T3 sequence (P32245 whole entry): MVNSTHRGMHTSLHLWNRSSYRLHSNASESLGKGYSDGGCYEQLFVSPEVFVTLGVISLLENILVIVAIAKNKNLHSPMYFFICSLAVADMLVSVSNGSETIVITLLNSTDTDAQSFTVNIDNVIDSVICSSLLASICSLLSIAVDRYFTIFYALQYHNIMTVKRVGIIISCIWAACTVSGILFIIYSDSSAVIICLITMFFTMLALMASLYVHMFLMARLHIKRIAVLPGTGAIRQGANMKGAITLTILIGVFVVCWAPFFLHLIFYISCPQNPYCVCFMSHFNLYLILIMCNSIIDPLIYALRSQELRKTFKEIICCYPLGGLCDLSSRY
T2 sequence (P33032 whole entry): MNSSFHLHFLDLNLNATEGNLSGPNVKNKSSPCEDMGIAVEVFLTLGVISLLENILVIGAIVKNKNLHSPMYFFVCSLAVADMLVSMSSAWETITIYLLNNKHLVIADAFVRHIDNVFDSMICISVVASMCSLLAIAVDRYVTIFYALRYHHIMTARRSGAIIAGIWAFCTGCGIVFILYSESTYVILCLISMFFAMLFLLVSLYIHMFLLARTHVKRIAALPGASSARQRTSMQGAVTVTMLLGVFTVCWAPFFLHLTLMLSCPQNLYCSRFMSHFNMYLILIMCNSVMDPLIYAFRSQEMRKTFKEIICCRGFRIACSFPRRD
T4 sequence (P41968 whole entry): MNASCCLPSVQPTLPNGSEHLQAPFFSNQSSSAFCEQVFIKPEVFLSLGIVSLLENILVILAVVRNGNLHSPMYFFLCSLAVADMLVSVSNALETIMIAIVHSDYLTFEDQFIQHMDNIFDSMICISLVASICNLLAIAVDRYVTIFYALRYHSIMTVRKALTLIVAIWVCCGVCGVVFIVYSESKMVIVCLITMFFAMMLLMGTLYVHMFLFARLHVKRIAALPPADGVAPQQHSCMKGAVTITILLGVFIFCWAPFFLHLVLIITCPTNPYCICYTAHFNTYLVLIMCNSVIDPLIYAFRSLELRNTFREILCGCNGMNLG

Consider `NCCCNC(=O)C(Cc1c[nH]c2ccccc12)NC(=O)Cc1cccc2ccccc12` (centres unmarked) [1:6, N-(3-Amino-propyl)-3-(1H-indol-3-yl)-2-(2-naphthalen-1-yl-acetylamino)-propionamide], for which the inhibition constant Ki was determined as 12.7 µM in [1], 25.2 µM in test [3], 30.8 µM in [4] and 37.1 µM in [7]. Moreover, the “Influence on cAMP MC5c” value in test [2] is listed as 76 percentage of the baseline. In addition, the “Influence on cAMP MC1c” value in test [5] was 375 percentage of the baseline. Also, the “Influence on cAMP MC4c” value in test [6] is listed as 99 percentage of the baseline.

`CCn1c2ccccc2c2cc(NC(=O)C(Cc3c[nH]c4ccccc34)NC(=O)CCCNC(=N)N)ccc21` (centres unmarked) [2:6, N-[1-(9-Ethyl-9H-carbazol-3-ylcarbamoyl)-2-(1H-indol-3-yl)-ethyl]-4-guanidino-butyramide]: the Ki worked out at 2.7 µM in [1], 20.8 µM in test [3] and 17.9 µM in test [4]. Besides, the “Influence on cAMP MC5c” value in test [2] was 117 percentage of the baseline. Moreover, the “Influence on cAMP MC1c” value in test [5] is listed as 354 percentage of the baseline. Besides, in test [6], the “Influence on cAMP MC4c” value was 61 percentage of the baseline. Also, in test [7], the “Affinity for MC-receptors Ki MC3” value is “nb”.

`CCn1c2ccccc2c2cc(NC(=O)C(Cc3c[nH]c4ccccc34)NC(=O)CCN)ccc21` (centres unmarked) [2:14, 2-(3-Amino-propionylamino)-N-(9-ethyl-9H-carbazol-3-yl)-3-(1H-indol-3-yl)-propionamide]: the “Influence on cAMP MC3c” value in [8] is reported as 116 percentage of the baseline. The “Influence on cAMP MC5c” value in test [2] was 164 percentage of the baseline. Further, the “Influence on cAMP MC1c” value in [5] is reported as 162 percentage of the baseline. Moreover, in test [6], the “Influence on cAMP MC4c” value was 237 percentage of the baseline.

Turning to `N=C(N)NCCCCN(Cc1ccccc1)C(=O)C(Cc1c[nH]c2ccccc12)NC(=O)CCCc1ccccc1` (centres unmarked) [Compound 1:15, N-[1-[Benzyl-(4-guanidino-butyl)-carbamoyl]-2-(1H-indol-3-yl)-ethyl]-4-phenyl-butyramide], the Ki in test [1] was determined as 1.3 µM; in test [3], 5.6 µM; in test [4], 35.6 µM; in [7], 23.5 µM. The “white blood cell count” value in test [9] is “clearly dose dependent”.

As for `N=C(N)NCCCCN(Cc1ccccc1)C(=O)C(Cc1c[nH]c2ccccc12)NC(=O)Cc1ccc2ccccc2c1` (centres unmarked) [Compound 1:17, N-Benzyl-N-(4-guanidino-butyl)-3-(1H-indol-3-yl)-2-(2-naphthalen-2-yl-acetylamino)-propionamide], the inhibitory constant (Ki) in test [1] is 0.6 µM; in test [3] it was 3.1 µM; in test [4], 43.7 µM; in [7], 35.3 µM. The “white blood cell count” value in test [9] is given as “clearly dose dependent”.

Consider `N=C(N)NCCCC(=O)NC(Cc1c[nH]c2ccccc12)C(=O)NCCc1c[nH]c2ccccc12` (centres unmarked) [Compound 2:4, 4-Guanidino-N-{2-(1H-indol-3-yl)-1-[2-(1H-indol-3-yl)-ethylcarbamoyl]-ethyl}-butyramide], for which the “effects at the highest dose compared with MTII” value in [10] (icv, 10 nmoles versus MTII 1 nmole, food intake and body weight gain) was “in the same range as that observed with MTII”. Besides, in [10] (icv, 1, 4 and 10 nmoles, measured at 3, 15 and 24 hours after dosing), the food intake entry was “the intermediate and the highest dose is significantly different from vehicle treated animals”. Besides, in test [11], the body weight gain entry is “dose dependent and significantly different from vehicle treated animals at the highest dose tested”.

Regarding `CCn1c2ccccc2c2cc(NC(=O)C(Cc3c[nH]c4ccccc34)NC(=O)CCCN)ccc21` (centres unmarked) [Compound 2:7, 4-Amino-N-[1-(9-ethyl-9H-carbazol-3-ylcarbamoyl)-2-(1H-indol-3-yI)-ethyl]-butyramide], the figures for the inhibition constant (Ki) in test [1], in test [3] and in [4] were 2.6 µM, 18.1 µM and 25.1 µM, respectively. The “Influence on cAMP MC5c” value in test [2] is listed as 154 percentage of the baseline. The “Influence on cAMP MC1c” value in test [5] is reported as 315 percentage of the baseline. Further, the “Influence on cAMP MC4c” value in [6] is on record as 79 percentage of the baseline. Also, the “Affinity for MC-receptors Ki MC3” value in [7] is “nb”.
